In patent US20130245081A1, “Compositions and Methods for Treating Amyotrophic Lateral Sclerosis” (priority 2009, published 2013):
Several values for one entry are separate records, joined by “and”; a condition that tells them apart may be missing. Identical values can stand only once. Like-named read-outs stand apart in the source and are kept apart here. Marks after values point to notes of the source that are not given here.

System: patients with ALS
[1] = 300 mg, through the end of the study
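Further: adverse event data gathered at every clinic visit and phone contact, after first study drug dose, in a blinded trial, counts of affected subjects.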

CCCN[C@@H]1CCc2nc(N)sc2C1 [dexpramipexole, (6R)-2-amino-4,5,6,7-tetrahydro-6-(propylamino)benzothiazole]
TEAE: Cough (300 mg, through Week 28): 5 (11%) N (%) | TEAE: Dehydration (300 mg, through Week 28): 3 (7%) N (%) | TEAE: Depression (300 mg, through Week 28): 5 (11%) N (%) | TEAE: Dizziness (300 mg, through Week 28): 3 (7%) N (%) | TEAE: Dysarthria (300 mg, through Week 28): 5 (11%) N (%) | TEAE: Dysphagia (300 mg, through Week 28): 4 (9%) N (%) | TEAE: Dyspnoea (300 mg, through Week 28): 6 (14%) N (%) | TEAE: Fall (300 mg, through Week 28): 11 (25%) N (%) | TEAE: Fatigue (300 mg, through Week 28): 2 (5%)^a N (%) and 2 (5%) N (%) | TEAE: Gastrointestinal Disorders (300 mg, through Week 28): 25 (57%) N (%) | TEAE: General Disorders and Administration Site Conditions (300 mg, through Week 28): 12 (27%) N (%) | TEAE: Headache (300 mg, through Week 28): 6 (14%) N (%) | TEAE: Hyperglycaemia (300 mg, through Week 28): 3 (7%) N (%) | TEAE: Infections and Infestations (300 mg, through Week 28): 17 (39%) N (%) | TEAE: Injury, Poisoning and Procedural Complication (300 mg, through Week 28): 12 (27%) N (%) | TEAE: Metabolism and Nutrition Disorders (300 mg, through Week 28): 8 (18%) N (%) | TEAE: Muscle contractions involuntary (300 mg, through Week 28): 2 (5%)^a N (%) and 2 (5%) N (%) | TEAE: Muscle spasticity (300 mg, through Week 28): 1 (2%) N (%) | TEAE: Musculoskeletal and Connective Tissue Disorders (300 mg, through Week 28): 19 (43%) N (%) | TEAE: Musculoskeletal pain (300 mg, through Week 28): 3 (7%) N (%) | TEAE: Nausea (300 mg, through Week 28): 3 (7%) N (%) | TEAE: Neck pain (300 mg, through Week 28): 4 (9%) N (%) | TEAE: Nervous System Disorders (300 mg, through Week 28): 18 (41%) N (%) | TEAE: Oedema peripheral (300 mg, through Week 28): 2 N (%) and 1 (2%) N (%) | TEAE: Pharyngolaryngeal pain (300 mg, through Week 28): 3 (7%) N (%) | TEAE: Pneumonia (300 mg, through Week 28): 1 (2%) N (%) | TEAE: Pruritus (300 mg, through Week 28): 0 N (%) | TEAE: Psychiatric Disorders (300 mg, through Week 28): 14 (32%) N (%) | TEAE: Rash (300 mg, through Week 28): 3 (7%) N (%) | TEAE: Respiratory failure (300 mg, through Week 28): 1 (2%) N (%) | TEAE: Respiratory, Thoracic and Mediastinal Disorders (300 mg, through Week 28): 18 (41%) N (%) | TEAE: Salivary hypersecretion (300 mg, through Week 28): 5 (11%) N (%) | TEAE: Sinusitis (300 mg, through Week 28): 5 (11%) N (%) | TEAE: Skin and Subcutaneous Tissue Disorders (300 mg, through Week 28): 8 (18%) N (%) | TEAE: Tachycardia (300 mg, through Week 28): 4 (9%) N (%) | TEAE: Upper respiratory tract infection (300 mg, through Week 28): 3 (7%) N (%) | TEAE: Urinary tract infection (300 mg, through Week 28): 4 (9%) N (%) | TEAE: Vomiting (300 mg, through Week 28): 0 N (%) | serious TEAE: Acute myocardial infarction (300 mg, through Week 28): 0 N (%) | serious TEAE: Atrial fibrillation (300 mg, through Week 28): 1 (2%) N (%) | serious TEAE: Blood and Lymphatic System Disorders (300 mg, through Week 28): 1 (2%) N (%) | serious TEAE: Cardiac Disorders (300 mg, through Week 28): 1 (2%) N (%) | serious TEAE: Cardiac failure congestive (300 mg, through Week 28): 0 N (%) | serious TEAE: Cholecystitis acute (300 mg, through Week 28): 1 (2%) N (%) | serious TEAE: Concussion (300 mg, through Week 28): 1 (2%) N (%) | serious TEAE: Disease progression (300 mg, through Week 28): 0 N (%) | serious TEAE: Dyspnoea (300 mg, through Week 28): 0 N (%) | serious TEAE: Fall (300 mg, through Week 28): 1 (2%) N (%) | serious TEAE: Gastrointestinal Disorders (300 mg, through Week 28): 0 N (%) | serious TEAE: General Disorders and Administration Site Conditions (300 mg, through Week 28): 0 N (%) | serious TEAE: Hepatobiliary Disorders (300 mg, through Week 28): 1 (2%) N (%) | serious TEAE: Ileus (300 mg, through Week 28): 0 N (%) | serious TEAE: Infections and Infestations (300 mg, through Week 28): 1 (2%) N (%) | serious TEAE: Injury, Poisoning and Procedural Complications (300 mg, through Week 28): 1 (2%) N (%) | serious TEAE: Neutropenia (300 mg, through Week 28): 1 (2%) N (%) | serious TEAE: Pneumonia (300 mg, through Week 28): 1 (2%) N (%) | serious TEAE: Pneumonia aspiration (300 mg, through Week 28): 1 (2%) N (%) | serious TEAE: Pneumonia bacterial (300 mg, through Week 28): 0 N (%) | serious TEAE: Pulmonary embolism (300 mg, through Week 28): 0 N (%) | serious TEAE: Respiratory distress (300 mg, through Week 28): 0 N (%) | serious TEAE: Respiratory failure (300 mg, through Week 28): 1 (2%) N (%) | serious TEAE: Respiratory, Thoracic and Mediastinal Disorders (300 mg, through Week 28): 2 (5%) N (%) | serious TEAE: Subdural haematoma (300 mg, through Week 28): 1 (2%) N (%) | serious TEAE: Sudden death (300 mg, through Week 28): 0 N (%) | serious TEAE: Viral infection (300 mg, through Week 28): 0 N (%) | ≧1 TEAE with an outcome of death (300 mg, through Week 28): 1 N (%) and 1 (2%) N (%) | ≧1 serious TEAE (including death) (300 mg, through Week 28): 5 N (%) and 5 (11%) N (%) | ≧1 serious treatment-related TEAE (300 mg, through Week 28): 1 (2%) N (%) | ≧1 severe TEAE (300 mg, through Week 28): 6 (14%) N (%) and 6 N (%) | Number of TEAEs [1]: 366 | Number of serious TEAEs [1]: 17 | Number of serious treatment-related TEAEs [1]: 2 | Number of severe TEAEs [1]: 23 | Number of treatment-related TEAEs [1]: 61 | Subjects with a TEAE with action taken of study drug discontinued [1]: 3 N (%) and 3 (7%) N (%) | subjects with TEAEs with an outcome of death (b230 count) [1]: 5 subjects | ≧1 TEAE with an outcome of death [1]: 4 N (%) and 4 (9%) N (%) | ≧1 serious TEAE (including death) [1]: 11 N (%) and 11 (25%) N (%) | ≧1 serious treatment-related TEAE [1]: 2 (5%) N (%) | ≧1 severe TEAE [1]: 13 N (%) and 13 (30%) N (%) | ≧1 treatment-related TEAE [1]: 18 (41%) N (%) | safety and tolerability (total daily doses of 50 mg and 300 mg, ALS subjects): safe and well tolerated
